Test results: patent US11344488B2 (TAKASAGO INTERNATIONAL CORPORATION, priority 2017, dated 2022)

Columns and labels:
human TRPM8 = target: T1, human TRPM8 (Homo sapiens, UniProt Q7Z2W7); test: Evaluation of cooling intensity (TRPM8 activity evaluation), calcium fluorescence in human TRPM8 stable expression cells; assay type: cell-based; conditions: TRPM8 activation action, Fluo4-AM fluorescence, 0.1 μM to 1000 μM, 32° C.
T1 construct: The full-length human TRPM8 gene was amplified from plasmid RC220615 (manufactured by Origene) using a PCR method; host or cells: Flp-In T-REx 293 cells ('Flp-In293293 cells' [sic]), pcDNA5/FRT/TO, doxycycline-induced
T1 sequence (Q7Z2W7 whole entry): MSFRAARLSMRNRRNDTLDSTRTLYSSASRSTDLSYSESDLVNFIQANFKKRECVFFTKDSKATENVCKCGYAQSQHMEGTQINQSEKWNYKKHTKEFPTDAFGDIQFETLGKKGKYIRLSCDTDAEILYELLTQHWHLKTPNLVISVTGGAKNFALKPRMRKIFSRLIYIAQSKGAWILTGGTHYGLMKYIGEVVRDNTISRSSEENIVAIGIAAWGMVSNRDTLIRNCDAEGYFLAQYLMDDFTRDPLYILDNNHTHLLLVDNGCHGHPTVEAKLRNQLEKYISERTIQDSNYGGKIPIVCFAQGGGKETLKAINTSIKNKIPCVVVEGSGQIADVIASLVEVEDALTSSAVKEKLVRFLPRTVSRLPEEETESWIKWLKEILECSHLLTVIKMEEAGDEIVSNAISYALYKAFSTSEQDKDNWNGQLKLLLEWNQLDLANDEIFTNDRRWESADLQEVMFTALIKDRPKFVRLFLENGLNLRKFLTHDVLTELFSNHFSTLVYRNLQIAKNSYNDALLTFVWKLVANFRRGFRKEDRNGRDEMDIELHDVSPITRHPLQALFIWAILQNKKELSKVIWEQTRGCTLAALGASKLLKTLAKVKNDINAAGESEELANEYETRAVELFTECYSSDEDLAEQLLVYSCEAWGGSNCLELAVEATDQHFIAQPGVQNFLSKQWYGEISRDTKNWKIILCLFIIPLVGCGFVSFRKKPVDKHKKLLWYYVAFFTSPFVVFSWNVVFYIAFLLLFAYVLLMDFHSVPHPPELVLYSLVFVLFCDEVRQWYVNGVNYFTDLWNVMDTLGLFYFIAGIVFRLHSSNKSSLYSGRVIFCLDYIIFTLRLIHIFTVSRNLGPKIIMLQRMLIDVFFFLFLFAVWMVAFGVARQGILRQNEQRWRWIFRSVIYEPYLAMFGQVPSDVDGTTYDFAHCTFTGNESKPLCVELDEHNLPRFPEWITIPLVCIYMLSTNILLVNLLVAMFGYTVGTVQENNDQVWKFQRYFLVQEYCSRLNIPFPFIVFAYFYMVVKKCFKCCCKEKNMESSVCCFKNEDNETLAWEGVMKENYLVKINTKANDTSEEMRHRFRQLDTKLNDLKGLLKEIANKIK
Procedure: The full-length human TRPM8 gene was amplified from plasmid RC220615 (manufactured by Origene) using a PCR method. The obtained PCR product was subcloned into pcDNA5/FRT/TO (manufactured by Thermo Fisher Scientific K.K.), and then it was introduced into Flp-In293293 cells (manufactured by Thermo Fisher Scientific K.K.) by using a Flp-InT-REx system (manufactured by Thermo Fisher Scientific K.K.), so that a human TRPM8 stable expression cell line was prepared.
The cultured human TRPM8 stable expression cells were seeded at a ratio of 50,000 cells/well to a poly-D-lysine-coated 96-well microplate (manufactured by Corning Incorporated), 1 μg/mL of doxycycline (manufactured by Takara Bio Inc.) was added thereto, and then the seeded cells were cultured at 37° C. for one night, so that the expression of the human TRPM8 was induced.
The culture solution was replaced with a buffer solution, and then, a fluorescent calcium indicator (Fluo4-AM: manufactured by Dojindo Laboratories) was added thereto, the cells were incubated at 37° C. for 30 minutes, and they were transferred to a fluorescent microplate reader (FlexStation3: manufactured by Molecular Devices, LLC.). Each of the compounds obtained in Examples and comparative compounds was added in a final concentration range of 0.1 μM to 1000 μM, and the changes in fluorescence having a wavelength of 525 nm when excited at a wavelength of 485 nm were measured at a device temperature of 32° C., and then EC50 values were determined.

oral cavity = test: Sensory evaluation of 30 ppm aqueous solutions in the mouth by four flavorists; assay type: in vivo, human
Procedure: The evaluation was performed by four flavorists. The aqueous solution was taken into the mouth and spat out after the mouth was rinsed, and cooling intensity, cool-feeling persistence, and quality of a cool-feeling in the oral cavity were evaluated.

| EC50 (human TRPM8) | melting point | SMILES | other results |
| --- | --- | --- | --- |
| 110000 nM |  | CNC(=O)[C@@H]1[C@@H](C)CCCC1(C)C (stereo in doubt) [N,2,2,6-tetramethylcyclohexanecarboxamide, reference compound] |  |
| 1110 nM |  | C[C@H]1CCCC(C)(C)[C@@H]1C(=O)NCC(=O)c1ccccc1 [(1R)-10-10, (1R, 6S)-2,2,6-trimethyl-N-(2-oxo-2-phenylethyl) cyclohexane-1-carboxamide] |  |
| 590 nM | 79 to 82 °C | C[C@H]1CCCC(C)(C)[C@@H]1C(=O)NCCc1ccccc1 [(1R, 6S)-10-1, (1R, 6S)-2,2,6-trimethyl-N-phenethylcyclohexane-1-carboxamide] | cool-feeling persistence (oral cavity; 30 ppm aqueous solution): ≥ 30 min; cooling intensity (oral cavity; 30 ppm aqueous solution): very strong; cooling intensity compared with N,2,2,6-tetramethylcyclohexanecarboxamide, 1-menthol and WS-3 (oral cavity; 30 ppm aqueous solutions): apparently stronger; cooling intensity compared with WS-5 (oral cavity; 30 ppm aqueous solutions): stronger |
| 600 nM | 95 to 98 °C | C[C@H]1CCCC(C)(C)[C@@H]1C(=O)NCC(O)c1ccccc1 (stereo partly drawn) [(1R, 6S)-10-4, (1R, 6S)-N-(2-hydroxy-2-phenylethyl)-2,2,6-trimethylcyclohexane-1-carboxamide] |  |
| 3960 nM |  | C[C@H]1CCCC(C)(C)[C@@H]1C(=O)NC[C@H](O)c1ccccc1 [(1R, 6S)-10-5, (1R, 6S)-N-((R)-2-hydroxy-2-phenylethyl)-2,2,6-trimethylcyclohexane-1-carboxamide] |  |
| 550 nM | 107 to 111 °C | C[C@H]1CCCC(C)(C)[C@@H]1C(=O)NC[C@@H](O)c1ccccc1 [(1R, 6S)-10-6, (1R, 6S)-N-((S)-2-hydroxy-2-phenylethyl)-2,2,6-trimethylcyclohexane-1-carboxamide] |  |
| 1190 nM | 178 to 180 °C | C[C@H]1CCCC(C)(C)[C@@H]1C(=O)NCCc1ccc(O)cc1 [(1R, 6S)-10-8, (1R, 6S)-N-(4-hydroxyphenethyl)-2,2,6-trimethylcyclohexane-1-carboxamide] |  |
| 2550 nM | 75 to 77 °C | C[C@H]1CCCC(C)(C)[C@@H]1C(=O)NCCc1ccc(O)c(O)c1 [(1R, 6S)-10-12] |  |
| 7720 nM |  | COc1ccc(CCNC(=O)[C@@H]2[C@@H](C)CCCC2(C)C)cc1OC [(1R, 6S)-10-13] |  |
| 1970 nM |  | C[C@H]1CCCC(C)(C)[C@@H]1C(=O)NCc1cccs1 [(1R, 6S)-10-22] |  |
| 3480 nM |  | C[C@H]1CCCC(C)(C)[C@@H]1C(=O)NCc1ccsc1 [(1R, 6S)-10-23] |  |
| 6140 nM |  | C[C@H]1CCCC(C)(C)[C@@H]1C(=O)Nc1ccc(O)cc1 [(1R, 6S)-10-27] |  |
| 1590 nM |  | COc1ccc(NC(=O)[C@@H]2[C@@H](C)CCCC2(C)C)cc1 [(1R, 6S)-10-28] |  |
| 3750 nM |  | C[C@H]1CCCC(C)(C)[C@@H]1C(=O)Nc1ccc2c(c1)OCO2 [(1R, 6S)-10-33] |  |
| 1190 nM |  | CC(=O)c1ccc(NC(=O)[C@@H]2[C@@H](C)CCCC2(C)C)cc1 [(1R, 6S)-10-35] |  |
| 1670 nM | 85 to 87 °C | C[C@H]1CCCC(C)(C)[C@@H]1C(=O)Nc1ccc(CCO)cc1 [(1R, 6S)-10-36] |  |
| 5760 nM |  | COC(=O)c1ccc(NC(=O)[C@@H]2[C@@H](C)CCCC2(C)C)cc1 [(1R, 6S)-10-38] |  |
| 1060 nM |  | CSc1ccc(NC(=O)[C@@H]2[C@@H](C)CCCC2(C)C)cc1 [(1R, 6S)-10-41] |  |
| 1770 nM |  | C[C@H]1CCCC(C)(C)[C@@H]1C(=O)Nc1ccc(CC#N)cc1 [(1R, 6S)-10-42] |  |
| 15000 nM |  | C[C@H]1CCCC(C)(C)[C@@H]1C(=O)Nc1ccncc1 [(1R, 6S)-10-43] |  |
| 1740 nM |  | C[C@H]1CCCC(C)(C)C1C(=O)OC[C@@H](O)c1ccccc1 (stereo partly drawn) [(1R, 6S)-10-51] |  |
| 2100 nM |  | C[C@H]1CCCC(C)(C)[C@H]1C(=O)NCC(=O)c1ccccc1 [(1S)-10-10, (1S, 6S)-2,2,6-trimethyl-N-(2-oxo-2-phenylethyl) cyclohexane-1-carboxamide] |  |
| 6360 nM | 96 to 99 °C | C[C@@H]1CCCC(C)(C)[C@H]1C(=O)NCC(O)c1ccccc1 (stereo partly drawn) [(1S, 6R)-10-4, (1S, 6R)-N-(2-hydroxy-2-phenylethyl)-2,2,6-trimethylcyclohexane-1-carboxamide] |  |
| 7680 nM | 105 to 110 °C | C[C@@H]1CCCC(C)(C)[C@H]1C(=O)NC[C@H](O)c1ccccc1 [(1S, 6R)-10-5, (1S, 6R)-N-((R)-2-hydroxy-2-phenylethyl)-2,2,6-trimethylcyclohexane-1-carboxamide] |  |
| 5980 nM |  | C[C@@H]1CCCC(C)(C)[C@H]1C(=O)NC[C@@H](O)c1ccccc1 [(1S, 6R)-10-6, (1S, 6R)-N-((S)-2-hydroxy-2-phenylethyl)-2,2,6-trimethylcyclohexane-1-carboxamide] |  |
| 5900 nM | 180 to 182 °C | C[C@@H]1CCCC(C)(C)[C@H]1C(=O)NCCc1ccc(O)cc1 [(1S, 6R)-10-8, (1S, 6R)-N-(4-hydroxyphenethyl)-2,2,6-trimethylcyclohexane-1-carboxamide] |  |
| 2420 nM |  | COc1ccc(CNC(=O)C2[C@@H](C)CCCC2(C)C)cc1 (stereo partly drawn) [(1S, 6R)-10-28] |  |
| 1610 nM |  | CCNC(=O)[C@@H]1C[C@H](C)CCC1C(C)C (stereo partly shown) [WS-3, reference compound] |  |
| 730 nM |  | CCOC(=O)CNC(=O)[C@@H]1C[C@H](C)CCC1C(C)C (stereo partly shown) [WS-5, reference compound] |  |
| 23100 nM |  | CCNC(=O)C(C)(C(C)C)C(C)C [WS-23, reference compound] |  |
